Where two headings read alike, the source gives them in different places. Positions of bridges follow the written chain, without caps; N, C: chain ends. No end group written: not given here.
Assays:
skin [1] = experiment: Safety assessment of test product on skin; settings: use for 4 weeks, dermatologist's physical examination
Description: (§8) Women aged 30-65 having wrinkles around eyes were tested. […] They had second and third visits at the interval of 2 weeks after the start of use, and at each visit, were required to respond to various types of assessment and investigation defined in the experiment.
(§9) Furthermore, safety assessment was performed, and for safety of clinical test product, in all subjects having used the test product at least once, abnormal responses found at the second week and fourth week after use and abnormal responses reported during the test period were all used as safety assessment data of the product.

[2] = test system: 2-degree burns of male SD rats; experiment: Burn treatment test: burn wound area; assay type: in vivo, SD (Sprague-Dawley) rats
Description: (§1) The experiment was carried out with 55 male SD (Sprague-Dawley) rats that were divided into […] groups: 5 rats for normal group (1 group, G1), 9-10 rats for negative control (1 group, G2), 30 rats for experimental group (3 groups, 10 rats in each group, G3, G4, G5), and 9-10 rats for positive control (1 group, G6). In the remaining groups except normal group, burned male SD rats was used for experiment. After SD rats were anesthesized, 2-degree burns, 2 cm in diameter, were induced on the SD rats using an aluminum electric soldering iron.
(§2) Test substance HU022 (SEQ ID NO:1) (G3, G4, G5), normal saline solution (G2) and Fiblast (G6) were applied to the skin of the burned male SD rats repeatedly once a day seven times a week for 7 days. Fiblast was applied to control group (G6) in 10 μg/dose/head, and the experimental group was divided into 3 groups and test substance was applied to each group in 3.3 μg/dose/head (G3), 10 μg/dose/head (G4), and 30 μg/dose/head (G5).
After burn was induced, imaging was performed before test substance was applied, and imaging was performed on 1st, 4th, 8th, 11th, and 15th days, and after imaging, test substance was applied and the applied site was covered with gauze and wrapped with tegaderm. Furthermore, images taken for measuring the burn wound area were analyzed using Image analyzer program.
(§3) With the measurement results, parametric comparison determined significance via Student's t-test and One-Way ANOVA, and significance testing relative to negative control was conducted. Furthermore, with the histopathology test results of burns, Kruskal-Wallis' H-test was conducted, and when significance between groups was identified, comparison between groups was performed through Mann-Whitney U-test. The computation program for statistics was SPSS 10.1 K. P<0.05 was determined to be statistically significant.

[3] = Burn treatment test: body weight and abnormal syndrome; assay type: in vivo, SD (Sprague-Dawley) rats; settings: for BODY WEIGHTS: skin
Description: as §1, §2, §3

[4] = test system: hair growth of C57BL/6 mouse; experiment: Hair growth test: hair growing area; assay type: in vivo
Description: (§4) This test was conducted to assess the influence on hair growth of C57BL/6 mouse when 4 types of test substances, HU024 (SEQ ID NO:2), HU025 (SEQ ID NO:3), HU026 (SEQ ID NO:4), and HU027 (SEQ ID NO:5), were applied to the skin for 14 days.
(§5) The group design was set to negative control (sterile water for injection G1), test substance HU024 (SEQ ID NO:2) 20 ug/head/day (G2), test substance HU024 (SEQ ID NO:2) 60 ug/head/day (G3), test substance HU025 (SEQ ID NO:3) 20 ug/head/day (G4), test substance HU025 (SEQ ID NO:3) 60 ug/head/day (G5), test substance HU026 (SEQ ID NO:4) 20 ug/head/day (G6), test substance HU026 (SEQ ID NO:4) 60 ug/head/day (G7), test substance HU027 (SEQ ID NO:5) 20 ug/head/day (G8), test substance HU027 (SEQ ID NO:5) 60 ug/head/day (G9) and positive control minoxyl 3% (G10) administered groups. Each group had 10 animals.
(§6) After the animal was put under anesthesia using zoletil (1 mL/kg, i.p), the back of the animal was primarily shaved using a depilator, and Veet depilatory was evenly applied on the back. After about 5 minutes, the applied site was cleaned up using gauze moistened with sterile water for injection. Only animal whose shaved back was scarlet in color was used for group separation. The test substance was applied to the same site daily once per day, 7 times per week for 14 days, and the test substance was evenly applied to the shaved site (on the back) by rubbing with a glass rod about 10 times.
The hair growing area (%) relative to the test substance-applied area was measured and determined, and Image analyzer program (Image Pro Plus ver. 6.3, Cybermetics, USA) was used to measure. […] Imaging was performed together with the measurements on the date when the hair area was measured. On the next day after the end of application, the animals were killed by CO2 gas, and hair on the hair growing area was removed by a depilator and hair weight was measured.
(§7) The measurement results were analyzed using SPSS (ver. 10.1K), Duncan t-test for weight changes was conducted through one-way analysis of variance, hair weight was compared between groups using Student's t-test, and hair growing area was compared between groups through nonparametric multiple comparison procedures Whitney-Mann methods. P<0.05 was determined to be statistically significant.

skin [5] = settings: in vivo
Description: as §8, §9

[6] = Hair growth test: body weight; assay type: in vivo; settings: skin
Description: as §4, §5, §6
The test item was measurements of dead animal, general syndrome, weight change, hair growing area and hair weight, and comparison with negative control was conducted.
as §7

## HU022: polypeptide consisting of 452nd-509th amino acids of ADAM 15 (GenBank AAH14566.1), 58 amino acids; commercial product (EYEGENE Inc.)
Skin [1]
  abnormal response / skin irritation: safe product not causing irritation to the skin
[2]; 3.3 μg/head/day, Day 1
  BURN WOUNDED AREA: 4.8 ± 0.8 cm^2
  BURN WOUNDED AREA (%): 100.0 ± 16.3%
[2]; 3.3 μg/head/day, Day 4
  BURN WOUNDED AREA: 3.8 ± 0.6 cm^2
  BURN WOUNDED AREA (%): 79.2 ± 13.571%
[2]; 3.3 μg/head/day, Day 8
  BURN WOUNDED AREA: 2.9 ± 0.6 cm^2
  BURN WOUNDED AREA (%): 60.8 ± 11.9%
[2]; 3.3 μg/head/day, Day 11
  BURN WOUNDED AREA: 2.5 ± 0.7 cm^2
  BURN WOUNDED AREA (%): 51.6 ± 15.7%
[2]; 3.3 μg/head/day, Day 15
  BURN WOUNDED AREA: 1.9 ± 0.6 cm^2
  BURN WOUNDED AREA (%): 40.1 ± 12.8%
[2]; 10 μg/head/day, Day 1
  BURN WOUNDED AREA: 4.3 ± 0.9 cm^2
  BURN WOUNDED AREA (%): 100.0 ± 23.0%
[2]; 10 μg/head/day, Day 4
  BURN WOUNDED AREA: 3.6 ± 0.8 cm^2
  BURN WOUNDED AREA (%): 82.7 ± 18.0%
[2]; 10 μg/head/day, Day 8
  BURN WOUNDED AREA: 2.9 ± 0.5 cm^2
  BURN WOUNDED AREA (%): 68.2 ± 12.3%
[2]; 10 μg/head/day, Day 11
  BURN WOUNDED AREA: 2.4 ± 0.3 cm^2
  BURN WOUNDED AREA (%): 56.8 ± 7.7%
[2]; 10 μg/head/day, Day 15
  BURN WOUNDED AREA: 2.2 ± 0.4 cm^2
  BURN WOUNDED AREA (%): 51.9 ± 8.9%
[2]; 30 μg/head/day, Day 1
  BURN WOUNDED AREA: 5.2 ± 0.4 cm^2
  BURN WOUNDED AREA (%): 100.0 ± 7.0%
[2]; 30 μg/head/day, Day 4
  BURN WOUNDED AREA: 3.5 ± 0.5 cm^2
  BURN WOUNDED AREA (%): 67.6 ± 9.3 %
[2]; 30 μg/head/day, Day 8
  BURN WOUNDED AREA: 2.9 ± 0.3 cm^2
  BURN WOUNDED AREA (%): 55.9 ± 5.1%
[2]; 30 μg/head/day, Day 11
  BURN WOUNDED AREA: 2.3 ± 0.1 cm^2
  BURN WOUNDED AREA (%): 43.9 ± 2.6%
[2]; 30 μg/head/day, Day 15
  BURN WOUNDED AREA: 1.8 ± 0.4 cm^2
  BURN WOUNDED AREA (%): 35.6 ± 8.4%
[3]; 3.3 μg/head/day, Day 1
  BODY WEIGHTS: 261.24 ± 10.05 g
[3]; 3.3 μg/head/day, Day 8
  BODY WEIGHTS: 269.41 ± 17.57 g
[3]; 3.3 μg/head/day, Day 15
  BODY WEIGHTS: 300.31 ± 20.36 g
[3]; 10 μg/head/day, Day 1
  BODY WEIGHTS: 260.59 ± 9.27 g
[3]; 10 μg/head/day, Day 8
  BODY WEIGHTS: 267.86 ± 5.20 g
[3]; 10 μg/head/day, Day 15
  BODY WEIGHTS: 296.55 ± 8.86 g
[3]; 30 μg/head/day, Day 1
  BODY WEIGHTS: 257.94 ± 9.23 g
[3]; 30 μg/head/day, Day 8
  BODY WEIGHTS: 259.49 ± 15.34 g
[3]; 30 μg/head/day, Day 15
  BODY WEIGHTS: 284.87 ± 17.06 g
[3]; burned male SD rats, skin application
  abnormal syndrome after application: any abnormal syndrome was not observed

## HU024 (RPTRGDCDLPEFCPG; disulfide 7-13; listed as Homo sapiens)
[4]; 20 ug/head/day, Day 1
  HAIR AREA (%): 0.02 ± 0.01%
[4]; 20 ug/head/day, Day 4
  HAIR AREA (%): 0.06 ± 0.04%
[4]; 20 ug/head/day, Day 7
  HAIR AREA (%): 0.44 ± 0.19%
[4]; 20 ug/head/day, Day 10
  HAIR AREA (%): 7.55 ± 2.56%
[4]; 20 ug/head/day, Day 14
  HAIR AREA (%): 67.34 ± 9.03%
[4]; 60 ug/head/day, Day 1
  HAIR AREA (%): 0.04 ± 0.04%
[4]; 60 ug/head/day, Day 4
  HAIR AREA (%): 0.00 ± 0.00%
[4]; 60 ug/head/day, Day 7
  HAIR AREA (%): 0.85 ± 0.75%
[4]; 60 ug/head/day, Day 10
  HAIR AREA (%): 6.56 ± 3.04%
[4]; 60 ug/head/day, Day 14
  HAIR AREA (%): 55.69 ± 12.45%
Skin [5]
  abnormal response / skin irritation: safe product not causing irritation to the skin
[6]; 20 ug/head/day, Day 1
  BODY WEIGHTS: 21.34 ± 0.60 g
[6]; 20 ug/head/day, Day 7
  BODY WEIGHTS: 22.64 ± 0.76 g
[6]; 20 ug/head/day, Day 11
  BODY WEIGHTS: 24.15 ± 0.86 g
[6]; 60 ug/head/day, Day 1
  BODY WEIGHTS: 21.54 ± 0.53 g
[6]; 60 ug/head/day, Day 7
  BODY WEIGHTS: 23.02 ± 0.74 g
[6]; 60 ug/head/day, Day 11
  BODY WEIGHTS: 24.30 ± 1.08 g

Source: patent US10632181B2, “Composition, containing RGD motif-containing peptide or fragment thereof, for treating burns and glaucoma, alleviating skin wrinkles, and promoting hair growth” (HUONS CO., LTD., priority 2014, dated 2020)
